From publication PMC9217967, “Simultaneous production and sustainable eutectic mixture based purification of narringinase with Bacillus amyloliquefaciens by valorization of tofu wastewater” (Scientific Reports, 2022)

Tested on: T1, naringinase
T1 construct: native enzyme from culture, NADES extractive fermentation, Sephadex G-15 and DEAE-Sepharose; a beta-glucosidase activity (prunin to naringenin) may be included
Experiment: Lineweaver-Burk; modified Davis assay, residual naringin at […] nm
Type: biochemical, Bacillus amyloliquefaciens
Conditions: general assay: acetate buffer pH 4.2, 333 K, 60 min; printed unit is not a concentration; printed kcat/Km fits 1.5 × 10^-3 M

Km: 1.5 mM
SMILES: C[C@@H]1O[C@@H](O[C@H]2[C@H](Oc3cc(O)c4c(c3)O[C@H](c3ccc(O)cc3)CC4=O)O[C@H](CO)[C@@H](O)[C@@H]2O)[C@H](O)[C@H](O)[C@H]1O [Naringin]
